Assays:
[1] = molecular target: T1, SNAT1 (SLC38A1) (Homo sapiens, UniProt Q9H2H9); assay: glutamine uptake in Xenopus laevis oocytes expressing hSNAT1; assay type: cell-based
T1 sequence (Q9H2H9 1-487): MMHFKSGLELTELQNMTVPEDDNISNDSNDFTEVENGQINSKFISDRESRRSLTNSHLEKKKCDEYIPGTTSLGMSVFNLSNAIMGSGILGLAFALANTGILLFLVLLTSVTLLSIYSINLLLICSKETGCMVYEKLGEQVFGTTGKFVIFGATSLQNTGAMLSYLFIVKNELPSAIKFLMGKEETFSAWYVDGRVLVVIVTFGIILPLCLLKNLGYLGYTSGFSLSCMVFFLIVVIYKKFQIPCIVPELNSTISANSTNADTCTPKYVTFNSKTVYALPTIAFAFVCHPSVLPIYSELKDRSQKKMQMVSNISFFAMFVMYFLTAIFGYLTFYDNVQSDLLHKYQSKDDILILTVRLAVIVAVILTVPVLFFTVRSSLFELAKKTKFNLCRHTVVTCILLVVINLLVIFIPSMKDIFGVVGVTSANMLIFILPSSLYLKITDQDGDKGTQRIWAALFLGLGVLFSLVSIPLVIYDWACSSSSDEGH

[2] = molecular target: T2, LAT1 (SLC7A5) (Rattus norvegicus, UniProt Q63016); assay: isoleucine uptake in Xenopus laevis oocytes expressing h4F2hc/rLAT1; assay type: cell-based
T2 construct: with human 4F2hc
T2 sequence (Q63016 whole entry): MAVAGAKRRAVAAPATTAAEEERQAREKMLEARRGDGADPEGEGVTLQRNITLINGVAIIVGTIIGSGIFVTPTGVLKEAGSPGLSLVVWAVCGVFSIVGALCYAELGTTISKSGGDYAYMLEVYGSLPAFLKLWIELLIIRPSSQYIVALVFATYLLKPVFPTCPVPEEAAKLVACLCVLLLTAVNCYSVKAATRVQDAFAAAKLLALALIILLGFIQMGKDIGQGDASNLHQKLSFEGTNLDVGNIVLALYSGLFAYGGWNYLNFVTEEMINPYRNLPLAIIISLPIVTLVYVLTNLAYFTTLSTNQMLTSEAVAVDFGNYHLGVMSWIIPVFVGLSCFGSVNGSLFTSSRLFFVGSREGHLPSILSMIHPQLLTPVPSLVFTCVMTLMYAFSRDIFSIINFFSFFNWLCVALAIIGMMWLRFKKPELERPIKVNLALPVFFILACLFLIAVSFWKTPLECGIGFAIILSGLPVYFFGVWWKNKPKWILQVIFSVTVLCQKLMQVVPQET
T2 sequence (P08195 103-630 partner): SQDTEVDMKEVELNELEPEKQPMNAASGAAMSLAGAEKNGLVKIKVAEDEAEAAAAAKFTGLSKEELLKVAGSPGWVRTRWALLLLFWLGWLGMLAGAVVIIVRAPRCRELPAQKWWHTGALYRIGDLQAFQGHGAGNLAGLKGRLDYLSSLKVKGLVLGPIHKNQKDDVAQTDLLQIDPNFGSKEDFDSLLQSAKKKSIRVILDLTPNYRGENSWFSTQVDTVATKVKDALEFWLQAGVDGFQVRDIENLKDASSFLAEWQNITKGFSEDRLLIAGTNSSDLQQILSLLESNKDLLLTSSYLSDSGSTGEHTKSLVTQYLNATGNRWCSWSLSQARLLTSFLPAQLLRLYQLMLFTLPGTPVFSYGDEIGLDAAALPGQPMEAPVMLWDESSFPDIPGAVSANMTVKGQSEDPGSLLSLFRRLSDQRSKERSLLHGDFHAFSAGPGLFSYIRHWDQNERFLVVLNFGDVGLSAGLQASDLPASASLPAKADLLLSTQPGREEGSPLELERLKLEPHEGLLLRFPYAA

| SMILES | glutamine uptake in Xenopus laevis oocytes expressing hSNAT1 [1] | isoleucine uptake in Xenopus laevis oocytes expressing h4F2hc/rLAT1 [2] |
| --- | --- | --- |
| NC(=O)CC[C@H](N)C(=O)O [glutamine] | Glutamine uptake was used to measure hSNAT1, hSNAT2, and hASCT2 activity |  |
| CC[C@H](C)[C@H](N)C(=O)O [isoleucine] |  | isoleucine transport was used to measure h4F2hc/rLAT1 activity |

Reference: publication PMC6060247, “Disruption of Amino Acid Homeostasis by Novel ASCT2 Inhibitors Involves Multiple Targets” (Frontiers in Pharmacology, 2018)
